Patent publication US11214803B2, “Modulators of YAP1 expression” (Ionis Pharmaceuticals, Inc., priority 2019, dated 2022)
Strand notation (5' to 3'): a small letter for the sugar, then the base; units joined by * are phosphorothioate-linked, units joined directly phosphodiester-linked; [ ] holds rarer units or linkages, { } end groups; capitals alone tell only the bases. k = constrained ethyl (cEt); [5mC] = 5-methylcytosine; d = 2'-deoxy (DNA)

System: Yap1 mRNA
Experiment: Dose-dependent inhibition of human Yap1 in A-431 cells (Example 8, 10,000 cells per well, RTS4814)
Assay type: cell-based
Conditions: free uptake, approximately 48 hours, RTS4814; for Yap1 mRNA, % UTC: A-431 cells, 10,000 cells per well; for IC50: A-431 cells, linear regression on log/linear plot
Experimental: Modified oligonucleotides described in the studies above were tested at various doses in A-431 cells. Cultured A-431 cells at a density of 10,000 cells per well were treated using free uptake with modified oligonucleotides diluted to concentrations described in the tables below. After approximately 48 hours, Yap1 mRNA levels were measured as previously described using the Human Yap1 primer-probe set RTS4814. Yap1 mRNA levels were normalized to total RNA content, as measured by RIBOGREEN®. Results are presented in the tables below as percent control of the amount of Yap1 mRNA relative to untreated control cells (% UTC). IC50s were calculated using a linear regression on a log/linear plot of the data in excel.

| Substance | Yap1 mRNA, % UTC (31.3 nM) | Yap1 mRNA, % UTC (125.0 nM) | Yap1 mRNA, % UTC (500.0 nM) | Yap1 mRNA, % UTC (2000.00 nM) | IC50 |
| --- | --- | --- | --- | --- | --- |
| 1075041 (antisense kG*kA*kT*dT*dA*dT*dA*dA*dA*dG*dA*dG*dG*k[5mC]*kT*k[5mC]) [compound 1075041] | 62 % UTC | 31 % UTC | 11 % UTC | 7 % UTC | 50 nM |
| 1076483 (kA*k[5mC]*kG*dG*dG*dA*dA*dA*dT*d[5mC]*dA*dT*dA*kT*kA*kG; antisense) [compound 1076483] | 63 % UTC | 27 % UTC | 11 % UTC | 6 % UTC | 40 nM |
| 1076070 (kA*kT*kT*dA*dG*dT*dA*dA*dT*dG*d[5mC]*dA*d[5mC]*kA*kG*kG; antisense) [compound 1076070] | 55 % UTC | 17 % UTC | 8 % UTC | 6 % UTC | < 20 nM |
| 1074794 (k[5mC]*kA*kA*dA*dT*d[5mC]*dA*dA*dT*dG*dT*dG*d[5mC]*kT*k[5mC]*k[5mC]; antisense) [compound 1074794] | 56 % UTC | 23 % UTC | 10 % UTC | 6 % UTC | < 20 nM |
| 1075115 (kG*kT*kA*dT*dA*dG*d[5mC]*d[5mC]*dT*dT*dA*dT*dT*k[5mC]*kT*kT; antisense) [compound 1075115] | 57 % UTC | 41 % UTC | 17 % UTC | 9 % UTC | 100 nM |
| 1074564 (DNA k[5mC]*kT*kG*dA*dA*dT*dT*d[5mC]*d[5mC]*dA*dA*dT*d[5mC]*kG*kA*kG) [compound 1074564] | 40 % UTC | 14 % UTC | 7 % UTC | 4 % UTC | < 20 nM |
| 1075243 (k[5mC]*kT*kT*dA*dG*dT*dA*dA*dG*dA*dA*dT*dT*kG*kT*k[5mC]; antisense) [compound 1075243] | 50 % UTC | 18 % UTC | 7 % UTC | 5 % UTC | < 20 nM |
| 1075819 (kG*kT*kA*dT*dA*dT*d[5mC]*d[5mC]*dG*dT*dT*d[5mC]*dT*k[5mC]*kA*kT; antisense) [compound 1075819] | 48 % UTC | 18 % UTC | 7 % UTC | 5 % UTC | < 20 nM |
| 1074758 (k[5mC]*kA*kG*dT*dT*dA*dA*dG*d[5mC]*dA*d[5mC]*dT*dT*kT*kT*kA; antisense) [compound 1074758] | 74 % UTC | 23 % UTC | 8 % UTC | 5 % UTC | 100 nM |
| 1074817 (k[5mC]*kT*kG*dA*dA*dT*dA*dT*dT*dG*d[5mC]*d[5mC]*dA*k[5mC]*k[5mC]*k[5mC]; antisense) [compound 1074817] | 50 % UTC | 22 % UTC | 13 % UTC | 11 % UTC | < 20 nM |
| 1075781 (k[5mC]*kA*kT*dA*dT*dA*dT*dT*dG*dT*dG*dA*d[5mC]*kT*kT*k[5mC]; antisense) [compound 1075781] | 52 % UTC | 15 % UTC | 4 % UTC | 3 % UTC | < 20 nM |
| 1074852 (kA*kA*kT*dT*dG*dT*dT*dA*dT*dG*dA*dT*dA*kG*kG*k[5mC]; antisense) [compound 1074852] | 36 % UTC | 11 % UTC | 4 % UTC | 4 % UTC | < 20 nM |
| 1075810 (kG*kT*kA*dG*d[5mC]*dA*dA*dT*dA*dG*dA*dG*dT*kA*kA*k[5mC]; antisense) [compound 1075810] | 67 % UTC | 28 % UTC | 12 % UTC | 7 % UTC | 100 nM |
| 1075785 (k[5mC]*kA*kT*dT*dT*dT*dA*dT*dA*dG*dG*dG*d[5mC]*k[5mC]*kA*kT; antisense) [compound 1075785] | 29 % UTC | 7 % UTC | 3 % UTC | 3 % UTC | < 20 nM |
| 1074593 (DNA kA*kG*kG*dA*dG*d[5mC]*dA*dA*dG*dT*d[5mC]*dT*dT*kG*kT*kA) [compound 1074593] | 50 % UTC | 20 % UTC | 9 % UTC | 8 % UTC | < 20 nM |
